Measurements reported in patent US6632921B1, “Seryl-lysyl-based peptide and peptidomimetic inhibitors of N-myristoyl transferase as anti-infective agents” (G. D Searle & Co, priority 1995, dated 2003).
Where two headings read alike, the source gives them in different places.

Tests used:
C.glab. = assay: Antifungal susceptibility testing, pH 5.4 assay, different strains of Candida; type: cell-based, C.glabrata; details: Nakaseomyces glabratus, 24 hr
human NMT = molecular target: T1, human NMT (Homo sapiens, UniProt P30419); assay: NMT enzyme inhibition assay (radiochemical HPLC end-point), human NMT; type: biochemical
T1 construct: made in house; host or cells: E. coli
T1 sequence (P30419 1-416 isoform P30419-2): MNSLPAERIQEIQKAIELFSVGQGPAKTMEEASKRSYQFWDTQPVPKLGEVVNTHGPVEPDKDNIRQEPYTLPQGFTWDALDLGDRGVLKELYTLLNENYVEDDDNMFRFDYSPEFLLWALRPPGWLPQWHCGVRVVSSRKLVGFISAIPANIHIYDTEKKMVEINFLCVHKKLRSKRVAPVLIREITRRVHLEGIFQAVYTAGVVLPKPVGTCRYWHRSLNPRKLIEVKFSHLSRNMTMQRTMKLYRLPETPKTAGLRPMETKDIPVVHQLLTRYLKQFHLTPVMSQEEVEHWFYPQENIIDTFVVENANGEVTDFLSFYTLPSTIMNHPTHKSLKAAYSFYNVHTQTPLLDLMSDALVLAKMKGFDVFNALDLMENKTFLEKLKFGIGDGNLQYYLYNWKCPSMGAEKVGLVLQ
Method: Recombinant Candida albicans and human NMTs were expressed and purified from E. coli using previously described protocols. [D. A. Towler et al, Proc. Natl. Acad. Sci. USA, 84, 2707-2712 (1987); R. C. Weigand et al, J. Biol. Chem., 267, 8591-8598 (1992); R. J. Duronio et al, Proc. Natl. Acad. Sci. USA, 89, 4129-4133 (1992)] The ability of compounds to inhibit Candida NMT enzymatic activity was assessed using a radiochemical HPLC end-point assay as described previously for Saccharomyces cerevisiae and human NMTs. [D. Towler et al, Proc. Natl. Acad. Sci. USA, 83, 2812-2816 (1986); W. J. Rocque et al, J. Biol. Chem., 268, 9964-9971 (1991)] The donor substrate [^3H]myristoyl-coenzyme A was enzymatically synthesized from [^3H]myristic acid (50 Ci/mmol, Amersham, Arlington Heights, Ill.) and coenzyme A (Fluka Chemical Corp., Ronkonkoma, N.Y.), and purified as described previously. [W. J. Rocque et al, J. Biol. Chem., 268, 9964-9971 (1991)] The peptide acceptor substrate GNAASARR-NH2 was prepared by solid-phase peptide synthesis using the t-Boc amino acid methodology, followed by HF treatment and reverse-phase HPLC purification. Inhibitor stock solutions were prepared at 22 mM in DMSO; the final concentration of DMSO in each assay was 0.5% (v/v). […] The reaction was quenched after 10 minutes at 24° C. by the addition of ice-cold MeOH, and the reaction products were separated and measured using C4 reverse-phase HPLC (Vydac 214TP10415; Separations Group, Hesperia, Calif.) and in-line scintillation counting using a Radiomatic A250 (Packard Instruments, Downers Grove, Ill.) and Ecolite(+) (ICN Biomedical, Costa Mesa, Calif.) as the scintillant. Selectivity was determined by calculating the ratio of the IC50 against human NMT to the IC50 against C. albicans NMT.

C.alb (516) = assay: Antifungal susceptibility testing, pH 5.4 assay, different strains of Candida; type: cell-based; details: Candida albicans, 24 hr
Method: 1) (Assay at DH 5.4/30° C. Incubation/YNB Media).
Antifungal assays were carried out initially by a modification of the method published by Jones, et. al; (1), and communicated to Searle by Dr. Kobayashi, Washington University. [R. N. Jones et al, Manual of Clinical Microbiology, 4th ed., (1985)]
The antifungal susceptibility testing consists of a microdilution broth procedure performed in 96 well microtiter plates (Costar, cat#3799). Briefly, test compounds from a 20 mM stock solution in DMSO are diluted into sterile, deionized water (final DMSO concentration not exceeding 1%), to yield 2× the desired concentration (100 uM, 10 uM and 1 uM for an initial screen, or a selected concentration range in serial 2 fold dilutions for EC50 determination). One hundred microliters (100 ul) of each concentration is dispensed into triplicate wells of a 96 well microtiter plate. Appropriate dilutions of a suspension of C.albicans (1×10^6 cells/ml) in 2× YNB is distributed into each of the wells, including growth control wells containing no test compound as well as control wells with 0.5% DMSO. Amphotericin B at 0.05, 1 and 5 ug/ml is included in each assay plate as a positive control. The plates are incubated at 30° C. and cell growth is scored by reading the absorbance at 590 nm on an Elisa plate reader(Dynatech, MR.5000).

C.lusi. = assay: as above; type: cell-based, C.lusitaniae; details: Clavispora lusitaniae, 24 hr
C.trop. = assay: as above; type: cell-based, C.tropicalis; details: Candida tropicalis, 24 hr
C.para. = assay: as above; type: cell-based, C.parasilosis; details: 24 hr
Candida albicans NMT = molecular target: T2, Candida albicans NMT (Candida albicans, UniProt P30418); assay: NMT enzyme inhibition assay (radiochemical HPLC end-point), Candida NMT; type: biochemical; details: for IC50: read-out: IC50 caNMT
T2 construct: made in house; host or cells: E. coli
T2 sequence (P30418 1-451): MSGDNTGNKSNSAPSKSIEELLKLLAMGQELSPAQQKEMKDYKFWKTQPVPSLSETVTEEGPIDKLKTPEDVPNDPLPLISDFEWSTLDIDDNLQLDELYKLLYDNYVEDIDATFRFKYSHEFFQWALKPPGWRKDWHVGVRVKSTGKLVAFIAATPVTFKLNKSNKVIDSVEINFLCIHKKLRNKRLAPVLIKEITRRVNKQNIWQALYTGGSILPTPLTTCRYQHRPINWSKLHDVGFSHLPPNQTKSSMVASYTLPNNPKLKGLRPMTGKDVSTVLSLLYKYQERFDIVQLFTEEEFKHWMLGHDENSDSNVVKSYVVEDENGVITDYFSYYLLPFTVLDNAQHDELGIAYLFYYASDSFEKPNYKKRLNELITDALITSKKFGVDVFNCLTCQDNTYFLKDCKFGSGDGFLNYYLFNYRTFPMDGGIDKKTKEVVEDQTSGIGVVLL
Method: Recombinant Candida albicans and human NMTs were expressed and purified from E. coli using previously described protocols. [D. A. Towler et al, Proc. Natl. Acad. Sci. USA, 84, 2707-2712 (1987); R. C. Weigand et al, J. Biol. Chem., 267, 8591-8598 (1992); R. J. Duronio et al, Proc. Natl. Acad. Sci. USA, 89, 4129-4133 (1992)] The ability of compounds to inhibit Candida NMT enzymatic activity was assessed using a radiochemical HPLC end-point assay as described previously for Saccharomyces cerevisiae and human NMTs. [D. Towler et al, Proc. Natl. Acad. Sci. USA, 83, 2812-2816 (1986); W. J. Rocque et al, J. Biol. Chem., 268, 9964-9971 (1991)] The donor substrate [^3H]myristoyl-coenzyme A was enzymatically synthesized from [^3H]myristic acid (50 Ci/mmol, Amersham, Arlington Heights, Ill.) and coenzyme A (Fluka Chemical Corp., Ronkonkoma, N.Y.), and purified as described previously. [W. J. Rocque et al, J. Biol. Chem., 268, 9964-9971 (1991)] The peptide acceptor substrate GNAASARR-NH2 was prepared by solid-phase peptide synthesis using the t-Boc amino acid methodology, followed by HF treatment and reverse-phase HPLC purification. Inhibitor stock solutions were prepared at 22 mM in DMSO; the final concentration of DMSO in each assay was 0.5% (v/v). Inhibition assays were carried out by combining variable amounts of inhibitor or buffer with […] of [^3H]myristoyl-coenzyme A (1 μCi, 9.09 Ci/mmol) and 2.2 nmoles of GNAASARR-NH2 in a total volume of 60 μL of 0.2 M N-[2-hydroxy-ethyl]piperazine-N′-[2-ethanesulfonic acid], pH 7.4, 2 mM DL-dithiothreitol, 0.2 mM ethylene glycol-bis-(β-aminoethyl ether) N,N,N′,N′-tetraacetic acid, and initiating the reaction by the addition of 50 μL of a Candida NMT solution (7-12 ng/50 μL). Assays with human NMT were identical except that they used 60-75 ng/50 μL of enzyme solution and 0.22 nmoles of GNAASARR-NH2. The reaction was quenched after 10 minutes at 24° C. by the addition of ice-cold MeOH, and the reaction products were separated and measured using C4 reverse-phase HPLC (Vydac 214TP10415; Separations Group, Hesperia, Calif.) and in-line scintillation counting using a Radiomatic A250 (Packard Instruments, Downers Grove, Ill.) and Ecolite(+) (ICN Biomedical, Costa Mesa, Calif.) as the scintillant. Selectivity was determined by calculating the ratio of the IC50 against human NMT to the IC50 against C. albicans NMT.

Compound	EC50 (C.glab.)	IC50 (human NMT; Table V)	EC50 (C.alb (516))	EC50 (C.lusi.)	EC50 (C.trop.)	EC50 (C.para.)	IC50 (Candida albicans NMT; Table V)	Selectivity (Candida albicans NMT; ratio of IC50 against human NMT to IC50 against C. albicans NMT)	IC50 (human NMT; Comparator Compound A table)	IC50 (Candida albicans NMT; Comparator Compound A table)	inhibition of purified C. albicans Nmt in vitro (Candida albicans NMT; result in words)
Cc1nccn1CCCCc1ccc(CC(=O)N[C@@H](CO)C(=O)N[C@@H](CCCCN)C(=O)N[C@@H](CC2CCCCC2)C(=O)O)cc1 [Example 2, L-Alanine, 3-cyclohexyl-N-[N^2-[N-[[4-[4-(2-Methyl-1H-imidazol-1-yl)butyl]phenyl]acetyl]-L-seryl]-L-lysyl]-, bis-trifluoroacetate]	> 250 µM	810 µM	> 250 µM	> 250 µM	> 250 µM	40 µM	1.4 µM	560	–	–	–
Cc1nccn1CCCCc1ccc(CC(=O)N[C@H](CO)C(=O)N[C@H](CCCCN)C(=O)N[C@H](CC2CCCCC2)C(=O)O)cc1 [Comparator Compound A, D-Alanine, 3-cyclohexyl-N-[N^2-[N-[[4-[4-(2-methyl-1H-imidazol-1-yl)butyl]phenyl]acetyl]-D-seryl]-D-lysyl]-, bis-trifluoroacetate]	> 250 µM	–	> 250 µM	> 250 µM	> 250 µM	> 250 µM	–	–	> 1000 µM	> 1000 µM	not an inhibitor
